Several values for one entry are separate records, joined by “and”; a condition that tells them apart may be missing. Identical values can stand only once.
Assays:
[1] = Rat biodistribution 1 hour after tail vein injection; assay type: in vivo, Sprague-Dawley rats; details: for Activity in the thyroid / Radioactivity in / cleared from the body: rats
Procedure: (§1) The radioiodinated HBS (^131I-HBS) solution (100 μL), prepared in Example 3, was injected […] into a tail vein of three Sprague-Dawley rats (180-220 g). After one hour, the animals were sacrificed and the tissues and organs of interest were removed and weighed. The amount of radioactivity in each organ was determined by counting the tissue sample with a sodium iodide detector coupled to a multi-channel analyzer. The counts in the tissues were compared to the average counts of three 100 μL aliquots of ^131I-HBS counted in the same manner. The percentage of dose in the bone was calculated by assuming the femur to represent 1/25 the weight of the total skeletal system. The blood dose was calculated by assuming that blood comprises 6.5% of the total body weight. Muscle dose was calculated by assuming that muscle comprises 43% of the total body weight.
The biodistribution of the radioiodinated tyramine prepared in Example 6 was determined as in Example 4 (using 2 rats).

[2] = Two hour rat biodistribution after intrathecal administration; assay type: in vivo, Sprague-Dawley rats
Procedure: as §1
An I-HBS solution was prepared as in Example 3. Twenty μL of this solution was injected intrathecally in two Sprague-Dawley rats (100-150 g). After two hours the rats were sacrificed and dissected. The amount of radio activity in various organs and tissues was determined as in Example 4.

[3] = biological target: T1, thyroxine-binding globulin (Homo sapiens, UniProt P05543); details: concentrations up to 0.2 mM; cited from earlier work
T1 sequence (P05543 21-415): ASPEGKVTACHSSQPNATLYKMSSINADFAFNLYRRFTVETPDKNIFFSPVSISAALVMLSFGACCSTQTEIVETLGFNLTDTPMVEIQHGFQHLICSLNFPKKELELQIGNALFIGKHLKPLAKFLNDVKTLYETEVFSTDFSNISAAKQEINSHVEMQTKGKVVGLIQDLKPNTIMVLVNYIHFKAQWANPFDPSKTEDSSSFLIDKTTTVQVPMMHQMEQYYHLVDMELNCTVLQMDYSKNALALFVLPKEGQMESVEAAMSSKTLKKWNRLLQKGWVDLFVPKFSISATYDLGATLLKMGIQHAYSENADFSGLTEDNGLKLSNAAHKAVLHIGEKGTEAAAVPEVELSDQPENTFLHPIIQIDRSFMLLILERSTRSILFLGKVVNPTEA

albumin = albumin (Homo sapiens, UniProt P02768); details: concentrations up to 0.2 mM; cited from earlier work
prealbumin = prealbumin (Homo sapiens, UniProt P02766); details: concentrations up to 0.2 mM; cited from earlier work
[4] = 1 hour post injection, tail vein
[5] = average of three rats, 1 Hour After Injection, tail vein
[6] = individual rat, 1 Hour After Injection, tail vein
[7] = average of two rats, two hours after intrathecal administration of 20 μL
[8] = two hours after intrathecal administration, rats
[9] = average of 2 rats, determined as in Example 4 (percent of dose, 1 hour post injection, tail vein)
[10] = individual rat, determined as in Example 4 (percent of dose, 1 hour post injection, tail vein)

albumin, sequence (P02768 25-609, species assumed): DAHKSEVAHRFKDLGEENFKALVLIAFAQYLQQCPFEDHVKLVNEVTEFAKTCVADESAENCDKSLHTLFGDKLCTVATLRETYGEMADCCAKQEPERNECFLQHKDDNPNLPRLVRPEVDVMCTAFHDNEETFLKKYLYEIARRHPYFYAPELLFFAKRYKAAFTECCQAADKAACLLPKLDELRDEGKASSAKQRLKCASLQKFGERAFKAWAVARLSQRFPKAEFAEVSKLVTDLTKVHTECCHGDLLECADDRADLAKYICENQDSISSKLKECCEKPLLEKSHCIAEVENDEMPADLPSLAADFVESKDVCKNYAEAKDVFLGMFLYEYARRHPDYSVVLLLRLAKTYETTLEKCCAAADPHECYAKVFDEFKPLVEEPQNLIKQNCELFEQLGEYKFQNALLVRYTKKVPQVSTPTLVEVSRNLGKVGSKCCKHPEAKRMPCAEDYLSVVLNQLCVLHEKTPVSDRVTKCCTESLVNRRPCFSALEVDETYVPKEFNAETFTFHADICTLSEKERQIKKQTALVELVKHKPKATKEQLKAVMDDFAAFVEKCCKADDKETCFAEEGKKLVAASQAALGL

O=S(=O)([O-])c1ccc(O)c([131I])c1.[Na+] [^131I-HBS]
Activity in the urine ([1]; 1 hour post injection, all animals): Almost all the activity
Activity in the thyroid [1, 4]: lack of activity
Radioactivity in / cleared from the body [1, 4]: very little activity
Percent Injected Dose, Heart, Average [1, 5]: 0.01 Percent Injected Dose
Percent Injected Dose, Kidney, Average [1, 5]: 0.12 Percent Injected Dose
Percent Injected Dose, Lg. Int., Average [1, 5]: 0.08 Percent Injected Dose
Percent Injected Dose, Liver, Average [1, 5]: 0.06 Percent Injected Dose
Percent Injected Dose, Lung, Average [1, 5]: 0.02 Percent Injected Dose
Percent Injected Dose, Sm Int., Average [1, 5]: 1.10 Percent Injected Dose
Percent Injected Dose, Spleen, Average [1, 5]: 0.00 Percent Injected Dose
Percent Injected Dose, Stomach, Average [1, 5]: 0.29 Percent Injected Dose
Percent Injected Dose, Tail, Average [1, 5]: 0.08 Percent Injected Dose
Percent Injected Dose, Thyroid, Average [1, 5]: 0.00 Percent Injected Dose
Percent Injected Dose, Blood, Average ([1]; average of three rats, 1 Hour After Injection, tail vein, blood taken as 6.5% of body weight): 0.16 Percent Injected Dose
Percent Injected Dose, Bone, Average ([1]; average of three rats, 1 Hour After Injection, tail vein, femur taken as 1/25 of skeleton): 1.00 Percent Injected Dose
Percent Injected Dose, Muscle, Average ([1]; average of three rats, 1 Hour After Injection, tail vein, muscle taken as 43% of body weight): 0.40 Percent Injected Dose
Percent Injected Dose, Heart [1, 6]: 0.01 Percent Injected Dose (2×) and 0.02 Percent Injected Dose
Percent Injected Dose, Kidney [1, 6]: 0.19 Percent Injected Dose and 0.10 Percent Injected Dose and 0.08 Percent Injected Dose
Percent Injected Dose, Lg. Int. [1, 6]: 0.08 Percent Injected Dose and 0.12 Percent Injected Dose and 0.05 Percent Injected Dose
Percent Injected Dose, Liver [1, 6]: 0.05 Percent Injected Dose and 0.08 Percent Injected Dose and 0.06 Percent Injected Dose
Percent Injected Dose, Lung [1, 6]: 0.01 Percent Injected Dose and 0.03 Percent Injected Dose and 0.02 Percent Injected Dose
Percent Injected Dose, Sm Int. [1, 6]: 1.51 Percent Injected Dose and 0.67 Percent Injected Dose and 1.24 Percent Injected Dose
Percent Injected Dose, Spleen [1, 6]: 0.01 Percent Injected Dose (2×) and 0.00 Percent Injected Dose
Percent Injected Dose, Stomach [1, 6]: 0.33 Percent Injected Dose and 0.31 Percent Injected Dose and 0.24 Percent Injected Dose
Percent Injected Dose, Tail [1, 6]: 0.01 Percent Injected Dose and 0.16 Percent Injected Dose and 0.09 Percent Injected Dose
Percent Injected Dose, Thyroid [1, 6]: 0.00 Percent Injected Dose
Percent Injected Dose, Blood ([1]; individual rat, 1 Hour After Injection, tail vein, blood taken as 6.5% of body weight): 0.14 Percent Injected Dose and 0.18 Percent Injected Dose and 0.15 Percent Injected Dose
Percent Injected Dose, Bone ([1]; individual rat, 1 Hour After Injection, tail vein, femur taken as 1/25 of skeleton): 0.37 Percent Injected Dose and 0.16 Percent Injected Dose
Percent Injected Dose, Muscle ([1]; individual rat, 1 Hour After Injection, tail vein, muscle taken as 43% of body weight): 0.88 Percent Injected Dose and 0.38 Percent Injected Dose and 0.05 Percent Injected Dose
% Injected Dose, Bladder [2, 7]: 0.3 % Injected Dose
% Injected Dose, Blood [2, 7]: 0.7 % Injected Dose
% Injected Dose, Bone [2, 7]: 1.3 % Injected Dose
% Injected Dose, Brain [2, 7]: 1.6 % Injected Dose
% Injected Dose, Caecum [2, 7]: 0.0 % Injected Dose
% Injected Dose, Colon [2, 7]: 0.9 % Injected Dose
% Injected Dose, Heart [2, 7]: 0.0 % Injected Dose
% Injected Dose, Kidney [2, 7]: 0.3 % Injected Dose
% Injected Dose, Liver [2, 7]: 0.2 % Injected Dose
% Injected Dose, Lung [2, 7]: 0.0 % Injected Dose
% Injected Dose, Muscle [2, 7]: 0.5 % Injected Dose
% Injected Dose, Sm. Intestine [2, 7]: 0.5 % Injected Dose
% Injected Dose, Spleen [2, 7]: 0.0 % Injected Dose
% Injected Dose, Stomach [2, 7]: 0.3 % Injected Dose
% Injected Dose, Thyroid [2, 7]: 0.0 % Injected Dose
% Injected Dose, Urine ([2]; average of two rats, two hours after intrathecal administration of 20 μL, recovery of urine may have been less than quantitative): 88 % Injected Dose
Clearance of radioactivity through the kidney [2, 8]: had cleared the kidney
Radioactivity present in the thyroid [2, 8]: little or no radioactivity

O=S(=O)(O)c1cc(I)c(O)c(I)c1 [diiodophenolsulphonic acid, 3,5-diiodo-4-hydroxybenzenesulphonic acid]
Displacement of triiodothyronine from thyroxine-binding globulin [3]: did not displace
Displacement of triiodothyronine from albumin (albumin): did not displace
Displacement of thyroxine from prealbumin-binding sites (prealbumin): did selectively display thyroxine

NCCc1ccc(O)c([131I])c1 [radioiodinated tyramine]
Activity in the thyroid [1, 4]: very little
Radioactivity in / cleared from the body [1, 4]: most radioactivity had cleared the body
Biodistribution, Blood, Average [1, 9]: 1.13
Biodistribution, Bone, Average [1, 9]: 0.25
Biodistribution, Heart, Average [1, 9]: 0.03
Biodistribution, Kidney, Average [1, 9]: 0.26
Biodistribution, Lg. Int., Average [1, 9]: 1.24
Biodistribution, Liver, Average [1, 9]: 0.52
Biodistribution, Lung, Average [1, 9]: 0.15
Biodistribution, Muscle, Average [1, 9]: 1.09
Biodistribution, Sm. Int., Average [1, 9]: 4.07
Biodistribution, Spleen, Average [1, 9]: 0.01
Biodistribution, Stomach, Average [1, 9]: 0.43
Biodistribution, Tail, Average [1, 9]: 0.49
Biodistribution, Thyroid, Average [1, 9]: 0.09
Biodistribution, Blood [1, 10]: 1.19 and 1.06
Biodistribution, Bone [1, 10]: 0.30 and 0.20
Biodistribution, Heart [1, 10]: 0.03 and 0.02
Biodistribution, Kidney [1, 10]: 0.26 and 0.25
Biodistribution, Lg. Int. [1, 10]: 0.46 and 2.02
Biodistribution, Liver [1, 10]: 0.46 and 0.57
Biodistribution, Lung [1, 10]: 0.03 and 0.26
Biodistribution, Muscle [1, 10]: 1.31 and 0.87
Biodistribution, Sm. Int. [1, 10]: 3.47 and 4.67
Biodistribution, Spleen [1, 10]: 0.01
Biodistribution, Stomach [1, 10]: 0.37 and 0.48
Biodistribution, Tail [1, 10]: 0.77 and 0.20
Biodistribution, Thyroid [1, 10]: 0.12 and 0.07

Source: US6861044B2, “Radioiodinated sulfonated phenols and process therefore” (The Dow Chemical Company, priority 1998, dated 2005)
